Source: patent US6528096B1, “Carrier mixed with additives having lubricant properties for preparing powdery pharmaceutical compositions for inhalation” (Chiesi Farmaceutical S.p.A., priority 1999, dated 2003)

Tests used:
[1] = Water contact angle and degree of molecular surface coating of carrier; type: physicochemical; settings: single component, Table 6 footnote
Method: Advantageously, the carrier particles and the lubricant particles are mixed until the degree of molecular surface coating is more than 10% as determined by water contact angle measurement. Preferably, carrier particles and lubricant particles made of magnesium stearate are mixed until the water contact angle of the ‘coated’ carrier particles is more than 36° corresponding to more than 10% degree of molecular surface coating; more preferably, the water contact angle should be more than 50° corresponding to more than 23% decree of molecular surface coating.
40.528 kg (99.75% w/w) of α-Lactose monohydrate fraction 90-150 μm and 0.102 kg (0.25% w/w) of magnesium stearate were mixed in a Turbula mixer T 100 at 16 r.p.m. for several hours. At different mixing times samples were withdrawn and tested for uniformity of distribution of magnesium stearate, particle size, water contact angle and degree of molecular surface coating calculated according to lassie et al. (Transactions of the Faraday Society 40; 546, 1944). To validate the process, three batches (40 kg) of the carrier were prepared.

healthy volunteers = experiment: Acute tolerance trial in healthy volunteers; type: in vivo, humans; settings: single dose 25.72 mg lactose and 0.065 mg magnesium stearate via Pulvinal inhaler
Method: Furthermore, acute and long term tolerance trials were carried out to evaluate toxicity of magnesium stearate in humans.
In the former, 18 healthy volunteers, included in a double blind randomised controlled cross-over design study, received a single dose containing 25.72 mg of lactose and 0.065 mg of magnesium stearate via Pulvinal® inhaler. The introduction of 0.25% magnesium stearate in powdery pharmaceutical formulation resulted to be safe.

dog = experiment: Toxicity studies in dog; type: in vivo

O.OC[C@H]1O[C@@H](O[C@H]2[C@H](O)[C@@H](O)[C@@H](O)O[C@@H]2CO)[C@H](O)[C@@H](O)[C@H]1O [α-Lactose monohydrate]
water contact angle [1]: α-Lactose monohydrate water contact angle 12°

Magnesium stearate
Safety, acute tolerance (healthy volunteers): safe
Safety of the respirable amount (dog): safe
water contact angle [1]: Magnesium stearate water contact angle 118°
